Test results from patent publication US20250255876A1, “COMPOSITIONS AND METHODS FOR CANCER TREATMENT” (ARIEL SCIENTIFIC INNOVATIONS LTD., priority 2021, published 2025).

Tests used:
Type in all cases: cell-based
U2OS cells = assay: Colony survival assay, U2OS cells; conditions: varying cisplatin, 48 hours
Protocol: (§1) H1975 cells were plated in 24-well plates at 50,000 cells/well (for 50 µM inhibitor treatment) or 20,000 cells/well (for […] inhibitor treatment). U2OS and A549 cells were plated in 24-well plates at 5000 cells/well. The next day, cells were treated with varying concentrations of cisplatin, either with or without added inhibitor compound. After 48 hours of cisplatin+compound treatment, the cells were washed 3 times with PBS×1 and fresh media applied. After 4 days of recovery, the cells were stained with methylene blue and imaged using a Nikon SMZ25 stereomicroscope. The images were analyzed using the ImageJ (National Institutes of Health) area measurement tool to quantify total colony size in each well.

A549 cells = assay: Colony survival assay, A549 cells; conditions: A549, 5 μM cisplatin
Protocol: as §1
(§2) Cells were plated in 24-well plates at 50,000 cells/well (H1975 line) or 10,000 cells/well (A549 line). The next day, cells were treated with varying concentrations of cisplatin ([…]), with or without 50 μM compound. For the untreated control wells containing only cisplatin, DMSO was applied in place of the compound. After 48 hours of cisplatin+compound treatment, the cells were washed 3 times with PBS and fresh media was applied. After 4 days of recovery, the cells were stained with methylene blue and imaged using a Nikon SMZ25 stereomicroscope. The images were analyzed using the ImageJ (National Institutes of Health) area measurement tool to quantify total colony size in each well.
(§3) In order to assess the ability of the selected compounds to sensitize cells during cisplatin treatment, the inventors established a colony survival assay comparing the viability of cells treated with cisplatin alone or with combined treatment of cisplatin and 50 μM compound. For the compound screen, we used two lung cancer cell lines: human non-small lung carcinoma H1975 cells, and epithelial lung adenocarcinoma A549 cells. Out of ten compounds tested, compounds c #2 and c #3 were identified with the most significant sensitization effect and were chosen for future characterization. […] Survival rate was reduced from 90% in 5 μM cisplatin treatment to 50% survival in the combined treatment (FIGS. 11A-B). H1975 cells presented similar behavior following doxorubicin treatment (FIG. 11C). IC50 was calculated using linear regression, presenting a clear reduction of cisplatin's IC50 in all treatments.

H1975 cells = assay: Colony survival assay, H1975 cells; conditions: H1975, 5 μM cisplatin
Protocol: as §1, §2, §3

| Structure (SMILES) | cell survival with cisplatin plus inhibitor (U2OS cells) | survival rate, cisplatin alone (A549 cells) | survival rate, cisplatin alone (H1975 cells) |
| --- | --- | --- | --- |
| CCCC(=O)Nc1cccc(C(=O)Nc2nnc(COC)s2)c1 [Compound 9] | no activity | – | – |
| N.N.[Cl][Pt][Cl] [cisplatin, cis-diamminedichloroplatinum(II), reference compound] | – | 90% | 90% |
